Data reported in publication PMC9254721, “Global update on the susceptibilities of human influenza viruses to neuraminidase inhibitors and the cap-dependent endonuclease inhibitor baloxavir, 2018–2020” (Antiviral research, 2022).
“And” between values parts separate entries of the source, which are not always exact repeats. Equal values may be shown once.

Assays:
[1] = test system: A(H1N1)pdm09 virus neuraminidase (NA); format: biochemical, influenza A(H1N1)pdm09 virus
[2] = test system: A(H3N2) virus neuraminidase (NA); format: biochemical, influenza A(H3N2) virus
[3] = test system: B/Victoria-lineage virus neuraminidase (NA); format: biochemical, influenza B/Victoria-lineage virus
influenza viruses [4] = format: cell-based, influenza virus
[5] = test system: recombinant A(H1N1) virus; conditions: PA-A37S in a recombinant A(H1N1) virus; ref Hashimoto et al., 2021; cited from earlier work
[6] = test system: B/Victoria-lineage viruses; format: cell-based, influenza B/Victoria-lineage virus
influenza viruses [7] = conditions: PA-I38V, PA-E199G alone, when present in other subtypes; ref PA marker table; cited from earlier work
A(H3N2) viruses = format: cell-based, influenza A(H3N2) virus
A(H1N1)pdm09 viruses = format: cell-based, influenza A(H1N1)pdm09 virus

[H]/N=C(\N)N[C@H]1C=C(C(=O)O)O[C@@H]([C@H](OC)[C@H](O)CO)[C@@H]1NC(C)=O [Laninamivir, laninamivir]
inhibition phenotype (NI/RI/HRI) [1]: RI (key: normal inhibition (NI) is a <10-fold increase in the NAI IC50; RI is a 10- to 100-fold increase; HRI is a >100-fold increase)

CCOC(=O)C1=C[C@@H](OC(CC)CC)[C@H](NC(C)=O)[C@@H](N)C1 [Oseltamivir, oseltamivir]
inhibition phenotype (NI/RI/HRI) [2]: RI (key: normal inhibition (NI) is a <10-fold increase in the NAI IC50; RI is a 10- to 100-fold increase; HRI is a >100-fold increase) | inhibition phenotype (NI/RI/HRI) [3]: RI/HRI

CCC(CC)[C@H](NC(C)=O)[C@@H]1[C@H](O)[C@@H](C(=O)O)C[C@H]1N=C(N)N [Peramivir, peramivir]
IC50 fold-change as compared to reference median IC50 values [2]: 2 fold and 1.5 fold and 1 fold | IC50 fold-change compared to reference median IC50 values [2]: 2 (1) fold and 1.5 fold and 1 fold

CC(=O)N[C@H]1[C@H]([C@H](O)[C@H](O)CO)OC(C(=O)O)=C[C@@H]1N=C(N)N [Zanamivir, zanamivir]
inhibition phenotype (NI/RI/HRI) [2]: RI (key: normal inhibition (NI) is a <10-fold increase in the NAI IC50; RI is a 10- to 100-fold increase; HRI is a >100-fold increase)

COC(=O)OCOc1c2n(ccc1=O)N([C@@H]1c3ccccc3SCc3c1ccc(F)c3F)[C@@H]1COCCN1C2=O [baloxavir, baloxavir marboxil]
change in baloxavir susceptibility (influenza viruses [4]): no change | fold increase in EC50 as compared to the respective median EC50s (influenza viruses [4]): < 3 fold | effect of substitution on baloxavir susceptibility [5]: did not alter baloxavir susceptibility | EC50 fold-change as compared to reference median EC50 [6]: 0.88 [1.5] fold and 0.6 fold | Fold-change in susceptibility to baloxavir compared to PA sequence-matched control virus [6]: 0.88 [1.5] fold | effect of substitutions on in vitro baloxavir susceptibility (influenza viruses [7]): little or no effect | fold increase in EC50 compared to the respective PA sequence-matched controls (A(H3N2) viruses): < 3 fold | Fold-change in susceptibility to baloxavir compared to PA sequence-matched control virus (A(H1N1)pdm09 viruses): 4.7 [4.1] fold and 2.90 [3.7] fold | fold increase in EC50 compared to a PA sequence matched control (A(H1N1)pdm09 viruses): 4.1 fold
